The values that follow are results of earlier work, collected in patent US20030149010A1, “Combination of an aldosterone receptor antagonist and an HMG CoA reductase inhibitor” (priority 2001, published 2003).

The structures appear in SMILES notation.

Data set [1] concerns patients with severe heart failure. As to conditions: spironolactone added to ACE inhibitor therapy; 1663 patients with severe heart failure.
For data set [2], the system named is patients afflicted with congestive heart failure. As to conditions: coadministered with an ACE inhibitor.

On to `CC(=O)S[C@@H]1CC2=CC(=O)CC[C@]2(C)[C@H]2CC[C@@]3(C)[C@@H](CC[C@@]34CCC(=O)O4)[C@H]12` [spironolactone, 17-hydroxy-7α-mercapto-3-oxo-17α-pregn-4-ene-21-carboxylic acid γ-lactone acetate], for which, in data set [1], the reduction in hospitalizations was 35% and the reduction in mortality is on record as 30%. In addition, the “effectiveness in congestive heart failure” value in data set [2] was “highly effective in 13 of 16 patients”.
